Earlier results, collected in patent US20250160636A1, “Mitigating Ocular Toxicity” (GlaxoSmithKline Intellectual Property Development Limited, priority 2022, published 2025).
Read-outs that look alike come from different tables or passages of the source. Values belong to the compound of their own block, whether it stands above or below them.

Conditions: for Vision disorder: n = 255, photopsia

Conjunctivitis (n = 229): 11%
Keratitis (n = 3865 patients): 0.8%
grade III event (number of events, n = 3865 patients): 1
Compound: CN(C)C/C=C/C(=O)Nc1cc2c(Nc3ccc(F)c(Cl)c3)ncnc2cc1O[C@H]1CCOC1 [Afatinib]

Compound: CC(C)C[C@H](NC(=O)[C@H](Cc1ccccc1)NC(=O)c1cnccn1)B(O)O [Bortezomib]
Case reports associated with (case reports): Case reports associated with eyelid chalazia.
Label mentions (ocular toxicity issues) (label): Label mentions diplopia, blurred vision, conjunctival infection, irritation.

Compound: Cc1cc(Nc2ncc(Cl)c(Nc3ccccc3S(=O)(=O)C(C)C)n2)c(OC(C)C)cc1C1CCNCC1 [Ceritinib]
Vision disorder (comprised of vision impairment, blurred vision, accommodation disorder, presbyopia, or reduced visual acuity): Vision disorder 9% (comprised of vision impairment, blurred vision, photopsia,

Compound: C[C@@H](Oc1cc(-c2cnn(C3CCNCC3)c2)cnc1N)c1c(Cl)ccc(F)c1Cl [Crizotinib]
Vision disorder (includes diplopia, photophobia, vision blurred, visual field defect, visual impairment, vitreous floaters, visual brightness, and visual acuity reduced): Vision disorder 64% (Includes diplopia, photopsia, photophobia, vision blurred,

Uveitis/Iritis (n = 586): 1%
Compound: CC(C)(C)c1nc(-c2cccc(NS(=O)(=O)c3c(F)cccc3F)c2F)c(-c2ccnc(N)n2)s1 [Dabrafenib]
Can cause (ocular toxicity issue) (in vivo): cystoid macula edema

Conjunctivitis (cohort not given): 0.1-1%
Visual disorder (visual disturbance, vision blurred, decreased visual acuity) or dry eye (in vivo): 1-10%
Compound: Cc1nc(Nc2ncc(C(=O)Nc3c(C)cccc3Cl)s2)cc(N2CCN(CCO)CC2)n1 [Dasatinib]

Reported Conjunctivitis (n = 84): 18%
Conjunctivitis (n = 485): 12%
Conjunctivitis Grade III (number of events, n = 485): 1
Compound: C#Cc1cccc(Nc2ncnc3cc(OCCOC)c(OCCOC)cc23)c1 [Erlotinib]
Keratoconjunctivitis Sicca (n = 485): n = 485 and Keratoconjunctivitis Sicca 12% n = 485. Mentions of corneal
pooled incidence of ocular disorders (one pancreatic cancer study): 12.8%
pooled incidence of ocular disorders (three lung cancer studies): 17.8%

Compound: COc1cc2ncnc(Nc3ccc(F)c(Cl)c3)c2cc1OCCCN1CCOCC1 [Gefitinib]
Mentions of (ocular toxicity issues) (full list, wrapped over lines: eye irritation, eye pain, corneal erosion/ulcer, aberrant eyelash growth, corneal membrane sloughing, and ocular ischemia/hemorrhage): Mentions of eye irritation, eye pain, corneal erosion/ulcer, aberrant eyelash

Compound: Cc1cn(-c2cc(NC(=O)c3ccc(C)c(Nc4nccc(-c5cccnc5)n4)c3)cc(C(F)(F)F)c2)cn1 [Nilotinib]
Frequency class of vision impairment, vision blurred, visual acuity reduced, photopsia, eye irritation (in vivo): Uncommon: vision impairment, vision blurred, visual acuity reduced, photopsia,

Compound: CC(=O)Nc1cccc(-n2c(=O)n(C3CC3)c(=O)c3c(Nc4ccc(I)cc4F)n(C)c(=O)c(C)c32)c1 [Trametinib]
Incidence of Retinal Veinous Occlusion (4/1,749): halo. Incidence of Retinal Veinous Occlusion was 0.2% (4/1,749).
Incidence of Retinal Pigment Epithelial Detachment (14/1,749): Incidence of Retinal Pigment Epithelial Detachment was 0.8% (14/1,749).
Mentions (ocular toxicity issues) (full list, wrapped over lines: blurry vision, dry eye, transient blindness, eye floaters, and visual halo): Mentions blurry vision, dry eye, transient blindness, eye floaters, and visual

Compound: COc1cc2c(Nc3ccc(Br)cc3F)ncnc2cc1OCC1CCN(C)CC1 [Vandetanib]
Blurry vision (corneal opacities) (No cohort information): Blurry vision (corneal opacities) 9%. No cohort information.

Compound: CCCS(=O)(=O)Nc1ccc(F)c(C(=O)c2c[nH]c3ncc(-c4ccc(Cl)cc4)cc23)c1F [Vemurafenib]
Mentions (ocular toxicity issues) (in vivo): Mentions retinal vein occlusion, uveitis, blurry vision, iritis, and photophobia

Compound: Panitimumab
Conjunctivitis (in 463 patients): 4%
Eye/eyelid irritation (in 463 patients): 1%
increased lacrimation (in 463 patients): increased lacrimation (2%), in 463 patients
ocular hyperemia (in 463 patients): 3%

Compound: Pertuzumab
Mentions (ocular toxicity issues) (in vivo): Mentions increased lacrimation

Compound: Rituximab
Mentions (ocular toxicity issues) (in vivo): Mentions uveitis and optic neuritis
